Ends that are not written are not given here.
Legend:
Antibodies to HIV-1 [1] = assay: ELISA with peptide or peptide mixture as antigen, identifying HIV-1 positive sera; type: binding, human; conditions: Table 3
Protocol: According to this test a peptide or a peptide mixture of the present invention is adsorbed onto the wells of a microtiter plate. The wells are then treated with sera to be tested. After washing, anti-human IgG labeled with peroxidase is added to the wells. The determination of the peroxidase is performed with a corresponding substrate, e.g. with o-phenylene diamine. Also in this procedure the peroxidase can be exchanged by another label, e.g. by a radioactive or fluorescence label.
(§1) Each well of the microtiter plate is saturated with 100 μl of a solution containing a peptide or mixture of peptides (5 μg/ml) and left overnight. The wells are emptied and washed twice with a washing buffer (Tris, 0.043M; NaCl, 0.5M; thimerosal, 0.01% w/v; Tween 20, 0.05% v/v; pH7.4). The wells are then saturated with 0.35 ml of washing buffer for 1 hr. at 37° C. and washed once with the same buffer. Serum samples to be analyzed are diluted with specimen buffer (washing buffer plus casein, 0.05% w/v). The wells are rinsed with washing buffer prior to the addition of the diluted serum sample (0.1 ml). These are left to incubate for 1 hr. at room temperature. The wells are then emptied, washed twice rapidly and then once for two minutes with washing buffer. […] The wells are then emptied and washed twice rapidly with washing buffer and then five times in which the buffer was in contact with the well 2 minutes per washing. The substrate solution (3,3', 5,5'-tetramethylbenzidine, 8 mg per ml of DMSO) is diluted with 100 volumes 0.1M citrate-acetate buffer, pH 5.6 containing 0.1% v/v of 30% H2 O2 and added to each well (0.1 ml per well). After 10 minutes the contents of each well is treated with 0.1 ml 2N H2 SO4 and the optical density read at 450 nm. All determinations are done in duplicate.

Antibodies to HIV-1 [2] = assay: ELISA, relative performance of cyclic and non-cyclic HIV-1 peptides at serum dilutions (optical density); type: binding, human
Protocol: Table 4 is provided to illustrate the sensitivity of cyclic versus non cyclic peptides in the ELISA test by comparing the results of some sera at various dilutions.
as §1

[3] = single peptide, known HIV-1 positive sera
[4] = single p 24 peptide, Free, HIV-1 positive sera
[5] = single p 24 peptide, coupled, HIV-1 positive sera

“NH2 -CGLGIWGCSGKLICTTAVPWNASWSNKSLEQI-COOH [Peptide 98]” was tested, and the “% Positive Sera Correctly Identified” value (Antibodies to HIV-1 [1]; [3]) was 100%.
With “NH2 -CGYLKDQQLLGIWGCSGKLICTTAVPWNASWSNKSLEQI-COOH [Peptide 97]” the “% Positive Sera Correctly Identified” value (Antibodies to HIV-1 [1]; [3]) was 100%.
“NH2 -SGKLICTTAVPWNASWSNKSLEQGC-COOH [Peptide 56]” was tested, and the “% Positive Sera Correctly Identified” value (Antibodies to HIV-1 [1]; [3]) was 100%.
In the case of CGKIEPLGVAPTKAKRRVVQREKR [Peptide 71], the “% Positive Sera Correctly Identified” value (Antibodies to HIV-1 [1]; [3]) is reported as 83%.
In the case of “CGRAEQASQEVKN [Peptide 46, NH2 -CGRAEQASQEVKN-COOH]”, the “% Positive Sera Correctly Identified” value (Antibodies to HIV-1 [1]; [4]) is reported as 0% and the “% Positive Sera Correctly Identified” value (Antibodies to HIV-1 [1]; [5]) is reported as 93%.
With “NH2 -VERYLKDQQLLGIWGCSGKLICTTAVPWNAS-COOH (H-VERYLKDQQLLGIWGCSGKLICTTAVPWNAS-OH; cysteine pairing not given here) [Peptide 81, gp 41 590-620]” the “% Positive Sera Correctly Identified” value (Antibodies to HIV-1 [1]; [3]) was 100%.
In the case of “NH2 -GCSGKLICTTAVPWNASWSWSNKSLEQI-COOH [Peptide 95]”, the “% Positive Sera Correctly Identified” value (Antibodies to HIV-1 [1]; [3]) is reported as 100%.
“NH2 -GCSGKLICTTAVPWNAS-COOH (H-GCSGKLICTTAVPWNAS-OH; cysteine pairing not given here) [Peptide 77, gp 41 604-620]” was tested, and the “% Positive Sera Correctly Identified” value (Antibodies to HIV-1 [1]; [3]) was 100%, the ELISA optical density (Antibodies to HIV-1 [2]; serum specimen 87V103, dilution 1/50) was 0.000 OPTICAL DENSITY UNITS and the ELISA optical density (Antibodies to HIV-1 [2]; serum specimen 1428, dilution 1/50) was 0.926 OPTICAL DENSITY UNITS. It also gave an ELISA optical density (Antibodies to HIV-1 [2]; serum specimen M-5, dilution 1/50) of 1.719 OPTICAL DENSITY UNITS, an ELISA optical density (Antibodies to HIV-1 [2]; serum specimen M-5, dilution 1/100) of 1.459 OPTICAL DENSITY UNITS and an ELISA optical density (Antibodies to HIV-1 [2]; serum specimen M-5, dilution 1/200) of 1.248 OPTICAL DENSITY UNITS. The ELISA optical density (Antibodies to HIV-1 [2]; serum specimen M-5, dilution 1/400) was 0.959 OPTICAL DENSITY UNITS, the ELISA optical density (Antibodies to HIV-1 [2]; serum specimen M-5, dilution 1/800) was 0.057 OPTICAL DENSITY UNITS and the ELISA optical density (Antibodies to HIV-1 [2]; serum specimen M-7, dilution 1/50) was 0.142 OPTICAL DENSITY UNITS. It also gave an ELISA optical density (Antibodies to HIV-1 [2]; serum specimen M-7, dilution 1/100) of 0.025 OPTICAL DENSITY UNITS, an ELISA optical density (Antibodies to HIV-1 [2]; serum specimen M-7, dilution 1/200) of 0.007 OPTICAL DENSITY UNITS and an ELISA optical density (Antibodies to HIV-1 [2]; serum specimen M-7, dilution 1/400) of 0.001 OPTICAL DENSITY UNITS. For the same substance, the ELISA optical density (Antibodies to HIV-1 [2]; serum specimen M-7, dilution 1/800) was 0.000 OPTICAL DENSITY UNITS, the ELISA optical density (Antibodies to HIV-1 [2]; serum specimen M-8, dilution 1/50) was 0.795 OPTICAL DENSITY UNITS and the ELISA optical density (Antibodies to HIV-1 [2]; serum specimen M-8, dilution 1/100) was 0.507 OPTICAL DENSITY UNITS. For the same substance, the ELISA optical density (Antibodies to HIV-1 [2]; serum specimen M-8, dilution 1/200) was 0.376 OPTICAL DENSITY UNITS, the ELISA optical density (Antibodies to HIV-1 [2]; serum specimen M-8, dilution 1/400) was 0.209 OPTICAL DENSITY UNITS and the ELISA optical density (Antibodies to HIV-1 [2]; serum specimen M-8, dilution 1/800) was 0.062 OPTICAL DENSITY UNITS. For the same substance, the ELISA optical density (Antibodies to HIV-1 [2]; serum specimen M-16, dilution 1/50) was 1.219 OPTICAL DENSITY UNITS, the ELISA optical density (Antibodies to HIV-1 [2]; serum specimen M-16, dilution 1/100) was 0.962 OPTICAL DENSITY UNITS and the ELISA optical density (Antibodies to HIV-1 [2]; serum specimen M-16, dilution 1/200) was 0.613 OPTICAL DENSITY UNITS. The ELISA optical density (Antibodies to HIV-1 [2]; serum specimen M-16, dilution 1/400) was 0.301 OPTICAL DENSITY UNITS and the ELISA optical density (Antibodies to HIV-1 [2]; serum specimen M-16, dilution 1/800) was 0.205 OPTICAL DENSITY UNITS.
For “CGNNPPIPVGE [Peptide 41, NH2 -CGNNPPIPVGE-COOH]”, the “% Positive Sera Correctly Identified” value (Antibodies to HIV-1 [1]; [4]) was 63% and the “% Positive Sera Correctly Identified” value (Antibodies to HIV-1 [1]; [5]) was 73%.

Source: US6218102A, “Synthetic peptides and mixtures thereof for detecting HIV antibodies” (priority 1988, dated 2001)
